From PubChem BioAssay (NCI)
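Exposure lasted 48 hours, with cells grown in 96-well plates and compounds tested at five concentrations. Here, GI50 denotes the concentration required for 50% inhibition of growth. The concentration for full growth arrest is given as TGI.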

Key:
Experiment in all cases: NCI tumour cell line growth inhibition, 48 h
LOX IMVI melanoma = test system: LOX IMVI melanoma
MDA-MB-231 breast = test system: MDA-MB-231 breast
MDA-MB-435 = test system: MDA-MB-435
SF-268 CNS = test system: SF-268 CNS
SK-OV-3 ovarian = test system: SK-OV-3 ovarian
SN12C renal = test system: SN12C renal
SNB-75 CNS = test system: SNB-75 CNS
SW-620 colon = test system: SW-620 colon
UACC-62 melanoma = test system: UACC-62 melanoma
UO-31 renal = test system: UO-31 renal

CC(=O)N/N=C1\NC(=O)C[C@H]2[C@@H]3CC=C4C[C@@H](OC(C)=O)CC[C@]4(C)[C@H]3CC[C@]12C
TGI (LOX IMVI melanoma): > 100 µM | TGI (MDA-MB-231 breast): 39.3 µM | TGI (MDA-MB-435): > 100 µM | TGI (SF-268 CNS): > 100 µM | TGI (SK-OV-3 ovarian): 53.7 µM | TGI (SN12C renal): > 100 µM | TGI (SNB-75 CNS): 46.9 µM | TGI (SW-620 colon): > 100 µM | TGI (UACC-62 melanoma): 59 µM | TGI (UO-31 renal): > 100 µM

COc1ccc2cc(-c3ccc(-c4ccc(C(=N)N)s4)s3)ccc2c1
GI50 (LOX IMVI melanoma): 1950 nM | TGI (LOX IMVI melanoma): 3.82 µM | GI50 (MDA-MB-231 breast): 2460 nM | TGI (MDA-MB-231 breast): 5.42 µM | GI50 (MDA-MB-435): 2010 nM | TGI (MDA-MB-435): 4.48 µM | GI50 (SF-268 CNS): 2100 nM | TGI (SF-268 CNS): 4.97 µM | GI50 (SK-OV-3 ovarian): 17.9 µM | TGI (SK-OV-3 ovarian): 33.2 µM | GI50 (SN12C renal): 2120 nM | TGI (SN12C renal): 4.65 µM | GI50 (SNB-75 CNS): 10.4 µM | TGI (SNB-75 CNS): 26.6 µM | GI50 (SW-620 colon): 1910 nM | TGI (SW-620 colon): 3.81 µM | GI50 (UO-31 renal): 2880 nM | TGI (UO-31 renal): 9.72 µM

O=C(c1cc2ccccc2cc1O)N1CCCCC1
TGI (LOX IMVI melanoma): > 100 µM | TGI (MDA-MB-231 breast): > 100 µM | TGI (MDA-MB-435): > 100 µM | TGI (SF-268 CNS): > 100 µM | TGI (SK-OV-3 ovarian): > 100 µM | TGI (SNB-75 CNS): > 100 µM | TGI (SW-620 colon): > 100 µM | TGI (UACC-62 melanoma): > 100 µM | TGI (UO-31 renal): > 100 µM

O=C(CNc1ccccc1Cl)Nn1c(-c2ccccc2)nc2ccccc2c1=O
TGI (LOX IMVI melanoma): 29.5 µM | TGI (MDA-MB-231 breast): > 10 µM | TGI (MDA-MB-435): 37.4 µM | TGI (SF-268 CNS): > 100 µM | TGI (SK-OV-3 ovarian): > 100 µM | TGI (SN12C renal): > 100 µM | TGI (SNB-75 CNS): 63 µM | TGI (SW-620 colon): 39.7 µM | TGI (UACC-62 melanoma): > 10 µM | TGI (UO-31 renal): > 100 µM

O=C1C[C@H](Sc2ccccc2)C2(OCCO2)[C@@H](Sc2ccccc2)C1
TGI (LOX IMVI melanoma): 2.17 µM | TGI (MDA-MB-231 breast): 5.78 µM | TGI (MDA-MB-435): 7.97 µM | TGI (SF-268 CNS): 8.83 µM | TGI (SK-OV-3 ovarian): 24.7 µM | TGI (SN12C renal): 10.6 µM | TGI (SNB-75 CNS): 26 µM | TGI (SW-620 colon): 10.4 µM | TGI (UACC-62 melanoma): 4.63 µM | TGI (UO-31 renal): 3.49 µM

CN(C)c1ccc(C=C2N=C(c3ccccc3)N(c3cc(C(=O)c4ccccc4)ccc3N3C(=O)/C(=C/c4ccc(N(C)C)cc4)N=C3c3ccccc3)C2=O)cc1
TGI (LOX IMVI melanoma): > 100 µM | TGI (MDA-MB-231 breast): > 100 µM | TGI (MDA-MB-435): 4.42 µM | TGI (SF-268 CNS): > 100 µM | TGI (SK-OV-3 ovarian): > 100 µM | TGI (SN12C renal): > 100 µM | TGI (SNB-75 CNS): 78.9 µM | TGI (SW-620 colon): > 100 µM | TGI (UACC-62 melanoma): > 100 µM | TGI (UO-31 renal): > 100 µM

Cc1nn(C(=O)Cc2ccccc2)c2c1C(c1ccc(O)cc1)SC(N)=N2 (centres undefined)
TGI (LOX IMVI melanoma): > 100 µM | TGI (MDA-MB-231 breast): > 100 µM | TGI (MDA-MB-435): > 100 µM | TGI (SF-268 CNS): > 100 µM | TGI (SK-OV-3 ovarian): > 100 µM | TGI (SN12C renal): > 100 µM | TGI (SNB-75 CNS): > 100 µM | TGI (SW-620 colon): > 100 µM | TGI (UACC-62 melanoma): > 100 µM | TGI (UO-31 renal): > 100 µM

Nc1c(-c2cccc3ccccc23)c2ccc([N+](=O)[O-])cc2c(=O)n1-c1nc2ccccc2s1
TGI (LOX IMVI melanoma): > 35.5 µM | TGI (MDA-MB-231 breast): > 47.5 µM | TGI (MDA-MB-435): > 100 µM | TGI (SF-268 CNS): > 31.7 µM | TGI (SK-OV-3 ovarian): 14.8 µM | TGI (SN12C renal): > 100 µM | TGI (SNB-75 CNS): 9.65 µM | TGI (SW-620 colon): > 100 µM | TGI (UACC-62 melanoma): > 100 µM | TGI (UO-31 renal): > 100 µM

COc1cc(C2SCC(=O)N2c2ccc(NC(=O)c3ccc(N4C(=O)CSC4c4cc(OC)c(OC)c(OC)c4)cc3)cc2)cc(OC)c1OC (centres undefined)
TGI (LOX IMVI melanoma): > 100 µM | TGI (MDA-MB-231 breast): > 100 µM | TGI (MDA-MB-435): 61.4 µM | TGI (SF-268 CNS): > 100 µM | TGI (SK-OV-3 ovarian): > 100 µM | TGI (SN12C renal): > 100 µM | TGI (SNB-75 CNS): > 100 µM | TGI (SW-620 colon): > 100 µM | TGI (UACC-62 melanoma): 76.6 µM | TGI (UO-31 renal): > 100 µM

COc1cc(NS(C)(=O)=O)ccc1N1Cc2cnc3ccc4[nH]c(C)cc1c4c23
TGI (LOX IMVI melanoma): > 100 µM | TGI (MDA-MB-231 breast): > 100 µM | TGI (MDA-MB-435): 50.1 µM | TGI (SF-268 CNS): 63.4 µM | TGI (SK-OV-3 ovarian): > 100 µM | TGI (SNB-75 CNS): 46.5 µM | TGI (SW-620 colon): > 100 µM | TGI (UACC-62 melanoma): > 100 µM | TGI (UO-31 renal): > 100 µM

C=CCO/N=C/c1cc(NC(=S)c2ccoc2C)ccc1Cl
TGI (LOX IMVI melanoma): 44.5 µM | TGI (MDA-MB-231 breast): 30.1 µM | TGI (MDA-MB-435): 54.4 µM | TGI (SF-268 CNS): 36 µM | TGI (SK-OV-3 ovarian): 36.2 µM | TGI (SN12C renal): 30.3 µM | TGI (SNB-75 CNS): 38.2 µM | TGI (SW-620 colon): > 100 µM | TGI (UACC-62 melanoma): 35.5 µM | TGI (UO-31 renal): 19.4 µM

C/C=C/C=C/c1nc(C#N)c(N)o1
TGI (LOX IMVI melanoma): > 100 µM | TGI (MDA-MB-231 breast): > 100 µM | TGI (MDA-MB-435): > 100 µM | TGI (SF-268 CNS): > 100 µM | TGI (SK-OV-3 ovarian): > 100 µM | TGI (SN12C renal): > 100 µM | TGI (SNB-75 CNS): > 100 µM | TGI (SW-620 colon): > 100 µM | TGI (UACC-62 melanoma): > 100 µM | TGI (UO-31 renal): > 100 µM

CCCCC1c2c([nH]c3ccccc23)C2C(=O)N(c3ccc(OC)cc3)C(=O)C2C1CCC (centres undefined)
TGI (LOX IMVI melanoma): > 10 µM | TGI (MDA-MB-231 breast): > 10 µM | TGI (MDA-MB-435): 4.29 µM | TGI (SF-268 CNS): > 10 µM | TGI (SK-OV-3 ovarian): > 10 µM | TGI (SN12C renal): 4.04 µM | TGI (SNB-75 CNS): 6.5 µM | TGI (SW-620 colon): > 10 µM | TGI (UACC-62 melanoma): 6.77 µM | TGI (UO-31 renal): > 10 µM

COc1cc(C2CC(C)(Nc3ccccc3)Oc3cc4c(cc32)OCO4)cc(OC)c1OC (centres undefined)
TGI (LOX IMVI melanoma): > 100 µM | TGI (MDA-MB-231 breast): 4.34 µM | TGI (MDA-MB-435): 0.0688 µM | TGI (SF-268 CNS): > 100 µM | TGI (SK-OV-3 ovarian): 25.9 µM | TGI (SN12C renal): > 100 µM | TGI (SNB-75 CNS): > 100 µM | TGI (SW-620 colon): > 100 µM | TGI (UACC-62 melanoma): > 100 µM | TGI (UO-31 renal): 34.2 µM

CCN(C(=S)N[C@@H](Cc1ccccc1)C(=O)N[C@@H](CC(C)C)C(=O)OC)c1ccccc1
TGI (LOX IMVI melanoma): > 100 µM | TGI (MDA-MB-231 breast): > 100 µM | TGI (MDA-MB-435): > 100 µM | TGI (SK-OV-3 ovarian): > 100 µM | TGI (SN12C renal): > 100 µM | TGI (SNB-75 CNS): > 100 µM | TGI (SW-620 colon): > 100 µM | TGI (UACC-62 melanoma): > 100 µM | TGI (UO-31 renal): > 100 µM

COc1ccc2cc3c4cc5c(cc4cc[n+]3cc2c1OC)OCO5
TGI (LOX IMVI melanoma): > 100 µM | TGI (MDA-MB-231 breast): > 100 µM | TGI (MDA-MB-435): 22.9 µM | TGI (SF-268 CNS): 18.5 µM | TGI (SK-OV-3 ovarian): > 84.9 µM | TGI (SN12C renal): 54.2 µM | TGI (SNB-75 CNS): 67 µM | TGI (SW-620 colon): > 62.2 µM | TGI (UACC-62 melanoma): 27.9 µM | TGI (UO-31 renal): > 100 µM

O=c1c2cc3c(cc2[nH]c2ncccc12)OCO3
TGI (LOX IMVI melanoma): > 10 µM | TGI (MDA-MB-231 breast): > 10 µM | TGI (MDA-MB-435): > 10 µM | TGI (SF-268 CNS): > 10 µM | TGI (SK-OV-3 ovarian): > 10 µM | TGI (SN12C renal): > 10 µM | TGI (SNB-75 CNS): > 10 µM | TGI (SW-620 colon): > 10 µM | TGI (UACC-62 melanoma): > 10 µM

Cc1csc(-c2cn(C)c3c2C(=O)C(N)=CC3=O)n1
TGI (LOX IMVI melanoma): > 100 µM | TGI (MDA-MB-231 breast): > 100 µM | TGI (MDA-MB-435): 15.3 µM | TGI (SF-268 CNS): > 100 µM | TGI (SK-OV-3 ovarian): > 100 µM | TGI (SN12C renal): > 100 µM | TGI (SNB-75 CNS): 6.48 µM | TGI (SW-620 colon): > 100 µM | TGI (UACC-62 melanoma): 26.3 µM | TGI (UO-31 renal): > 100 µM

Cc1cc2[nH]c3[nH]c(=O)[nH]c(=O)c3c2cc1C
TGI (LOX IMVI melanoma): > 100 µM | TGI (MDA-MB-231 breast): > 100 µM | TGI (MDA-MB-435): > 100 µM | TGI (SF-268 CNS): > 100 µM | TGI (SK-OV-3 ovarian): > 100 µM | TGI (SN12C renal): > 100 µM | TGI (SNB-75 CNS): > 100 µM | TGI (SW-620 colon): > 100 µM | TGI (UACC-62 melanoma): > 100 µM | TGI (UO-31 renal): > 100 µM

Brc1cccc(Nc2nc(-c3cccs3)nc3ccc(Br)cc23)c1
TGI (LOX IMVI melanoma): > 100 µM | TGI (MDA-MB-231 breast): 64.6 µM | TGI (MDA-MB-435): 37.2 µM | TGI (SF-268 CNS): > 100 µM | TGI (SK-OV-3 ovarian): > 100 µM | TGI (SN12C renal): 71.3 µM | TGI (SNB-75 CNS): > 100 µM | TGI (SW-620 colon): > 100 µM | TGI (UACC-62 melanoma): 35.8 µM | TGI (UO-31 renal): > 100 µM
